pEC50: −log10 of the molar value. In brackets after ≈: the same amount, converted by molar mass.
Experiments:
[1] = Kinetic solubility of compound; assay type: physicochemical; details: read-out: Kinetic_solubility
[2] = biological target: T1, Neuronal acetylcholine receptor subunit alpha-7 (Homo sapiens, UniProt P36544); test: Positive allosteric modulator activity at human alpha7 nAChR expressed in Flp-In-HEK293 cells co-expressing RIC-3 assessed as potentiation of PNU282987-induced calcium influx at 10 uM measured after 10 mins by FLIPR assay; assay type: cell-based
T1 sequence (P36544 whole entry): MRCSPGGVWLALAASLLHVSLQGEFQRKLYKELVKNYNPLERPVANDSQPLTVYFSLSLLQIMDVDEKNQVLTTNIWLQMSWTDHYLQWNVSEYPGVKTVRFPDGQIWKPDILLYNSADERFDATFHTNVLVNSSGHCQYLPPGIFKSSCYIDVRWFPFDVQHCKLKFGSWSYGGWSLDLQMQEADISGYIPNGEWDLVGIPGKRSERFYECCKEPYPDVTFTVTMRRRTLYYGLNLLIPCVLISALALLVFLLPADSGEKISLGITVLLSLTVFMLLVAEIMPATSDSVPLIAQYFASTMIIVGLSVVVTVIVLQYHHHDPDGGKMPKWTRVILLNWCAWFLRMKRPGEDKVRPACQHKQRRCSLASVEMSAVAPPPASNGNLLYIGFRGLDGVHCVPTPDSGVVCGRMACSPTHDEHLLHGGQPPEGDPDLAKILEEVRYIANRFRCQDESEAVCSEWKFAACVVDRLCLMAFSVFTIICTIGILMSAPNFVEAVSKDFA

[3] = biological target: T1, Neuronal acetylcholine receptor subunit alpha-7; test: Positive allosteric modulator activity at human alpha7 nAChR expressed in Flp-In-HEK293 cells co-expressing RIC-3 assessed as potentiation of PNU282987-induced calcium influx measured after 10 mins by FLIPR assay; assay type: cell-based, Flp-In-293; details: for pEC50: read-out: EC50; for EC50: flp-in-293
[4] = Mutagenicity in Salmonella typhimurium TA100 in presence of rat liver S9 fraction by AMES test; assay type: toxicity, subcellular; details: salmonella enterica subsp. enterica serovar typhimurium
[5] = Mutagenicity in Salmonella typhimurium TA1535 in presence of rat liver S9 fraction by AMES test; assay type: toxicity, subcellular; details: salmonella enterica subsp. enterica serovar typhimurium
[6] = Mutagenicity in Salmonella typhimurium TA98 in presence of rat liver S9 fraction by AMES test; assay type: toxicity, subcellular; details: salmonella enterica subsp. enterica serovar typhimurium
[7] = Mutagenicity in Salmonella typhimurium TA98 in absence of rat liver S9 fraction by AMES test; assay type: toxicity; details: salmonella enterica subsp. enterica serovar typhimurium
[8] = Mutagenicity in Salmonella typhimurium TA100 in absence of rat liver S9 fraction by AMES test; assay type: toxicity; details: salmonella enterica subsp. enterica serovar typhimurium
[9] = Mutagenicity in Salmonella typhimurium TA1537 in presence of rat liver S9 fraction by AMES test; assay type: toxicity, subcellular; details: salmonella enterica subsp. enterica serovar typhimurium
[10] = Mutagenicity in Salmonella typhimurium TA1537 in absence of rat liver S9 fraction by AMES test; assay type: toxicity; details: salmonella enterica subsp. enterica serovar typhimurium
[11] = Mutagenicity in Escherichia coli WP2 uvrA in presence of rat liver S9 fraction by AMES test; assay type: toxicity, subcellular
[12] = Mutagenicity in Escherichia coli WP2 uvrA in absence of rat liver S9 fraction by AMES test; assay type: toxicity
[13] = Mutagenicity in Salmonella typhimurium TA1535 in absence of rat liver S9 fraction by AMES test; assay type: toxicity; details: salmonella enterica subsp. enterica serovar typhimurium
[14] = Metabolic stability in human liver microsomes assessed as intrinsic clearance at 1 uM measured per mg protein upto 40 mins; assay type: ADME, Microsome; details: read-out: CLH
[15] = Metabolic stability in Wistar rat liver microsomes assessed as intrinsic clearance at 1 uM measured per mg protein upto 40 mins; assay type: ADME, Microsome; details: read-out: CLH
[16] = Metabolic stability in NMRI mouse liver microsomes assessed as intrinsic clearance at 1 uM measured per mg protein upto 40 mins; assay type: ADME, Microsome; details: read-out: CLH
[17] = Flp-In-293, filed as positive allosteric modulator

Cn1ccc2cc(NC(=O)C(=O)c3cnn(Cc4ccc(Cl)cc4)c3)ccc21
solubility kinetic [1]: 3 µM (≈ 1.18 µg/mL)
Activity [2, 17]: 52%

Cn1ccc2cc(CNC(=O)N3CC(COc4ccc(Cl)cc4)C3)ccc21
pEC50 [3]: 7.26

Cc1ccc(CN2CCN(C(=O)C(=O)Nc3ccn4cccc4c3)CC2)cc1
solubility kinetic [1]: 5.6 µM (≈ 2.11 µg/mL)
pEC50 [3]: 5.48

Cc1ccc(OC2CCN(C(=O)NCc3ccc4c(ccn4C)c3)CC2)cc1
pEC50 [3]: 6.68

Cc1ccc(CN2CCC(C(=O)C(=O)Nc3ccc4c(ccn4C)c3)CC2)cc1
pEC50 [3]: 6.22

Cn1ccc2cc(CNC(=O)N3CC(COc4ccc(F)cc4)C3)ccc21
pEC50 [3]: 6.66

Cc1ccc(CN2CCN(C(=O)C(=O)Nc3ccc4c(F)cn(C)c4c3)CC2)cc1
Activity [4]: Toxic
solubility kinetic [1]: 12.5 µM (≈ 5.11 µg/mL)
pEC50 [3]: 5.85
Activity [5]: Toxic
Activity [6]: Toxic
Activity [7]: Toxic
Activity [8]: Toxic
Activity [9]: Toxic
Activity [10]: Toxic
Activity [11]: Toxic
Activity [12]: Toxic
Activity [13]: Toxic

Cc1ccc(CN2CCC(C(=O)NCc3ccc4c(ccn4C)c3)CC2)cc1
Activity ([2]; Flp-In-293): 12%

Cc1ccc(CN2CCN(C(=O)C(=O)Nc3cnc4c(c3)c(F)cn4C)CC2)cc1
pEC50 [3]: 6.68
microsomal CLint at 1 µM [14]: 12 µL/min/mg
microsomal CLint at 1 µM [15]: 41 µL/min/mg
microsomal CLint at 1 µM [16]: 39 µL/min/mg

Cc1ccc(CN2CCC(NC(=O)Nc3ccc4c(ccn4C)c3)CC2)cc1
EC50 [3]: Not Active

Cc1ccc(CC2CCN(C(=O)NC(=O)c3ccc4c(ccn4C)c3)CC2)cc1
Activity ([2]; Flp-In-293): 37%

Cc1ccc(CN2CCN(C(=O)C(=O)Nc3ccc4c(c3)c(Cl)cn4C)CC2)cc1
Activity [4]: Toxic
solubility kinetic [1]: 6.8 µM (≈ 2.89 µg/mL)
pEC50 [3]: 6.38
Activity [5]: Toxic
Activity [6]: Toxic
Activity [7]: Toxic
Activity [8]: Toxic
Activity [9]: Toxic
Activity [10]: Toxic
Activity [11]: Toxic
Activity [12]: Toxic
Activity [13]: Toxic

Cc1ccc(OCC2CCN(C(=O)NCc3ccc4c(ccn4C)c3)C2)cc1 (stereo not drawn)
pEC50 [3]: 6.55

Cc1ccc(Oc2ccc(C(=O)NCc3ccc4c(ccn4C)c3)cc2)cc1
pEC50 [3]: 7.40

Cc1ccc(CN2CCN(C(=O)C(=O)Nc3cnc4c(ccn4C)c3)CC2)cc1
solubility kinetic [1]: 47.4 µM (≈ 18.6 µg/mL)
pEC50 [3]: 6.40
microsomal CLint at 1 µM [14]: 0.3 µL/min/mg
microsomal CLint at 1 µM [15]: 56 µL/min/mg
microsomal CLint at 1 µM [16]: 46 µL/min/mg

Cc1ccc(OC2CN(C(=O)NCc3ccc4c(ccn4C)c3)C2)cc1
pEC50 [3]: 6.21

Cc1ccc(OC2CCN(C(=O)NCc3ccc4c(ccn4C)c3)C2)cc1 (stereo not drawn)
pEC50 [3]: 6.77

Cc1ccc(OC2CC3CCC(C2)N3C(=O)C(=O)Nc2ccc3[nH]ccc3c2)cc1 (stereo not drawn)
solubility kinetic [1]: 8.1 µM (≈ 3.27 µg/mL)
EC50 [3]: Not Active
microsomal CLint at 1 µM [14]: 12 µL/min/mg
microsomal CLint at 1 µM [15]: 61 µL/min/mg
microsomal CLint at 1 µM [16]: 40 µL/min/mg

Cn1ccc2cc(CNC(=O)N3CC(COc4ccc(C(F)(F)F)cc4)C3)ccc21
pEC50 [3]: 7.10

Cc1ccc(OCC2CN(C(=O)NCc3ccc4c(ccn4C)c3)C2)cc1
pEC50 [3]: 7.40

Cc1ccc(CN2CCC(c3nnc(C(=O)Nc4ccc5c(ccn5C)c4)o3)CC2)cc1
EC50 [3]: Not Active

Cc1ccc(OCC2CN(C(=O)C(=O)Nc3ccc4c(ccn4C)c3)C2)cc1
pEC50 [3]: 5.52

Cn1ccc2cc(CNC(=O)N3CC(COc4ccc(OC(F)(F)F)cc4)C3)ccc21
pEC50 [3]: 7.60

Cc1ccc(CC2CCN(C(=O)C(=O)Nc3ccc4[nH]ccc4c3)CC2)cc1
pEC50 [3]: 6.04

Cc1ccc(CN2CCN(C(=O)C(=O)Nc3cc4ccn(C)c4cc3F)CC2)cc1
Activity [4]: Toxic
solubility kinetic [1]: 47.1 µM (≈ 19.2 µg/mL)
pEC50 [3]: 6.05
Activity [5]: Toxic
Activity [6]: Toxic
Activity [7]: Toxic
Activity [8]: Toxic
Activity [9]: Toxic
Activity [10]: Toxic
Activity [11]: Toxic
Activity [12]: Toxic
Activity [13]: Toxic

Cn1ccc2cc(NC(=O)C(=O)c3cnc(Oc4ccc(Cl)cc4)s3)ccc21
solubility kinetic [1]: 0.1 µM (≈ 0.0412 µg/mL)
EC50 [3]: Not Active

Cn1nc(-c2ccc3c(ccn3C)c2)cc1C(=O)N1CCN(Cc2ccc(Cl)cc2)CC1
pEC50 [3]: 5.60

Cc1ccc(O[C@H]2CC[C@H](C(=O)C(=O)Nc3ccc4c(ccn4C)c3)CC2)cn1
pEC50 [3]: 6.17

Cc1ccc(CN2CCN(C(=O)C(=O)Nc3ccc4c(c3)CCN4C)CC2)cc1
solubility kinetic [1]: 95 µM (≈ 37.3 µg/mL)
pEC50 [3]: 6.09
microsomal CLint at 1 µM [14]: 71 µL/min/mg
microsomal CLint at 1 µM [15]: 23 µL/min/mg
microsomal CLint at 1 µM [16]: 18 µL/min/mg

Cc1ccc(CN2CCN(C(=O)NCc3ccc4c(ccn4C)c3)CC2)cc1
solubility kinetic [1]: 18.9 µM (≈ 7.12 µg/mL)
pEC50 [3]: 6.31
microsomal CLint at 1 µM [14]: 24 µL/min/mg

Cc1ccc(OC2CN(C(=O)C(=O)Nc3ccc4c(ccn4C)c3)C2)cc1
Activity [2, 17]: 47%

Cc1ccc(Oc2ccc(C(=O)C(=O)Nc3ccc4c(ccn4C)c3)cc2)cc1
solubility kinetic [1]: 2 µM (≈ 0.769 µg/mL)
pEC50 [3]: 7.22
microsomal CLint at 1 µM [14]: 34 µL/min/mg
microsomal CLint at 1 µM [15]: 48 µL/min/mg
microsomal CLint at 1 µM [16]: 46 µL/min/mg

Cc1ccc(CN2CCN(C(=O)C(=O)Nc3ccc4c(c3)c(F)cn4C)CC2)cc1
Activity [4]: Toxic
solubility kinetic [1]: 16.5 µM (≈ 6.74 µg/mL)
pEC50 [3]: 7.07
microsomal CLint at 1 µM [14]: 21 µL/min/mg
microsomal CLint at 1 µM [15]: 192 µL/min/mg
microsomal CLint at 1 µM [16]: 214 µL/min/mg
Activity [5]: Toxic
Activity [6]: Toxic
Activity [7]: Toxic
Activity [8]: Toxic
Activity [9]: Toxic
Activity [10]: Toxic
Activity [11]: Toxic
Activity [12]: Toxic
Activity [13]: Toxic

Cc1ccc(CN2C[C@@H](C)N(C(=O)C(=O)Nc3ccc4[nH]ccc4c3)C[C@@H]2C)cc1
solubility kinetic [1]: 14.9 µM (≈ 6.03 µg/mL)
EC50 [3]: Not Active
microsomal CLint at 1 µM [14]: 2 µL/min/mg

COc1ccc(OCC2CN(C(=O)NCc3ccc4c(ccn4C)c3)C2)cc1
pEC50 [3]: 7.22

Cc1ccc(Oc2cnc(C(=O)C(=O)Nc3ccc4c(ccn4C)c3)cn2)cc1
solubility kinetic [1]: 10 µM (≈ 3.86 µg/mL)
pEC50 [3]: 6.19
microsomal CLint at 1 µM [14]: 90 µL/min/mg
microsomal CLint at 1 µM [15]: 127 µL/min/mg
microsomal CLint at 1 µM [16]: 156 µL/min/mg

Cc1ccc(CN2CCN(C(=O)c3nnc(-c4cccc5c4ccn5C)o3)CC2)cc1
pEC50 [3]: 6.18

Cc1ccc(CN2CCN(C(=O)C(=O)Nc3cc(F)c4[nH]ccc4c3)CC2)cc1
Activity [4]: Toxic
solubility kinetic [1]: 42.7 µM (≈ 16.8 µg/mL)
pEC50 [3]: 6.96
microsomal CLint at 1 µM [14]: 17 µL/min/mg
microsomal CLint at 1 µM [15]: 130 µL/min/mg
microsomal CLint at 1 µM [16]: 151 µL/min/mg
Activity [5]: Toxic
Activity [6]: Toxic
Activity [7]: Toxic
Activity [8]: Toxic
Activity [9]: Toxic
Activity [10]: Toxic
Activity [11]: Toxic
Activity [12]: Toxic
Activity [13]: Toxic

Cc1ccc(OC2CCN(C(=O)C(=O)Nc3ccc4[nH]ccc4c3)CC2)cc1
pEC50 [3]: 6.59

Cc1ccc(CN2CCCC(C(=O)NCc3ccc4c(ccn4C)c3)C2)cc1 (stereo not drawn)
EC50 [3]: Not Active

Cn1ccc2cc(CNC(=O)N3CC(COc4ccc(C#N)cc4)C3)ccc21
pEC50 [3]: 6.46

Cc1ccc(CN2CCN(C(=O)C(=O)Nc3ccc4[nH]c(C)c(C)c4c3)CC2)cc1
Activity [4]: Toxic
solubility kinetic [1]: 23 µM (≈ 9.3 µg/mL)
microsomal CLint at 1 µM [14]: 13 µL/min/mg
microsomal CLint at 1 µM [15]: 56 µL/min/mg
microsomal CLint at 1 µM [16]: 151 µL/min/mg
Activity [5]: Toxic
Activity [6]: Toxic
Activity [7]: Toxic
Activity [8]: Toxic
Activity [9]: Toxic
Activity [10]: Toxic
Activity [11]: Toxic
Activity [12]: Toxic
Activity ([2]; Flp-In-293): 10%
Activity [13]: Toxic

Cc1ccc(CN2CCN(C(=O)C(=O)Nc3ccc4c(c3)c(C)cn4C)CC2)cc1
Activity [4]: Toxic
solubility kinetic [1]: 5 µM (≈ 2.02 µg/mL)
pEC50 [3]: 6.04
microsomal CLint at 1 µM [14]: 17 µL/min/mg
microsomal CLint at 1 µM [15]: 140 µL/min/mg
microsomal CLint at 1 µM [16]: 198 µL/min/mg
Activity [5]: Toxic
Activity [6]: Toxic
Activity [7]: Toxic
Activity [8]: Toxic
Activity [9]: Toxic
Activity [10]: Toxic
Activity [11]: Toxic
Activity [12]: Toxic
Activity [13]: Toxic

COCC(C(=O)Nc1ccc2c(ccn2C)c1)N1CCC(Oc2ccc(C)cc2)CC1 (stereo not drawn)
EC50 [3]: Not Active

Cc1ccc(CN2CCN(C(=O)C(=O)Cc3ccc4c(ccn4C)c3)CC2)cc1
Activity ([2]; Flp-In-293): 7%

Cc1ccc(CN2CCN(C(=O)C(=O)NCc3ccc4c(ccn4C)c3)CC2)cc1
EC50 [3]: Not Active

Cc1ccc(CC2CCN(C(=O)C(=O)Nc3ccc4[nH]c(C)cc4c3)CC2)cc1
EC50 [3]: Not Active

Cn1ccc2cc(CNC(=O)N3CC(COc4ccccc4)C3)ccc21
pEC50 [3]: 6.74

Cc1ccc(OC2CCN(C(=O)C(=O)Nc3ccc4c(ccn4C)c3)C2)cc1 (stereo not drawn)
Activity ([2]; Flp-In-293): 25%
